According to patent publication US4923882A, “Novel amine derivatives, salts thereof and an anti-ulcer agent containing the same” (Toyama Chemical Co., Ltd., priority 1982, dated 1990):
Where two headings read alike, the source gives them in different places.

Experiments:
[1] = test system: gastric acid secretion; assay: Inhibitory effect on gastric acid secretion, pylorus ligation method (histamine); assay type: in vivo, Wistar strain rats; conditions: Rattus norvegicus, read-out: Inhibition percentage (gastric acid secretion); for inhibition in vivo at 1 mg/kg: oral, histamine 25 mg/kg s.c.
Experimental: Five to six Wistar strain rats (male, 190 to 230 g) per group were starved for 35 hours, after which each drug was orally administered, and after 2 hours, the pylorus of each rat was ligated under ether anesthesia. […] After 3 hours, each rat was killed, after which the cardiac portion was ligated, and the stomach was removed. After 1 ml of distilled water was injected into the stomach, the gastric juice was collected by centrifugation and its volume was measured. The acidity of the gastric juice was measured by titrating 1 ml of the gastric juice with a 0.1N aqueous sodium hydroxide solution, taking pH 7.0 as the end-point. Physiological saline was administered to a control group.
The inhibition percentage of gastric acid secretion was determined from the following equation: [formula]

[2] = test system: Indomethacin ulcer; assay: Anti-ulcer activity: Indomethacin ulcer; assay type: in vivo, Wistar strain rats; conditions: for ED50: 5 h; for Potency ratio: Cimetidine = 1
Experimental: Six Wistar strain rats (male, 200 to 250 g) per group were starved for 24 hours, after which each drug was orally administered, and after 30 minutes, Indomethacin was injected subcutaneously at a dose of 30 mg/kg. After 5 hours, each rat was killed, and the stomach was removed and fixed with 3% formalin, after which the lengths of ulcers formed in the stomach was measured under the binocular stereoscopic microscope (10×), and the sum total of the lengths was taken as the ulcer index. To a control group was administered 0.5% Tween 80 physiological saline. The inhibition percentage was determined from the following equation: [formula]

[3] = test system: Mepirizole-induced duodenal ulcer; assay: Anti-ulcer activity: Mepirizole-induced duodenal ulcer; assay type: in vivo, Wistar strain rats; conditions: for rats died: in mepirizole test; for ED50: Rattus norvegicus, 18 h; for Potency ratio: Cimetidine = 1
Experimental: (ii) Mepirizole-induced duodenal ulcer
A test was carried out according to the method of Okabe et al. [S. Okabe et al., Gastrcenterology, 80, 1241 (1981)].
Six Wistar strain rats (male, 200 to 250 g) per group were starved for 24 hours, after which each drug was orally administered, and after 30 minutes, mepirizole was injected subcutaneously at a dose of 200 mg/kg. After 18 hours, the stomach and duodenum were removed and fixed with 3% formalin, after which the areas and depths of the ulcers formed in the duodenum were measured under the binocular stereoscopic microscope (10×). The scores were given in 7 grades depending on the areas and depths of the ulcers, and the sum total of the scores was taken as the ulcer index. The scores were given as follows:
That is to say, the score is 0 at an ulcer area of 0 to 0.2 mm^2, 1 at 0.2 to 1.0 mm^2, 2 at 1 to 3 mm^2, 3 at 3 to 6 mm^2, 4 at 6 to 10 mm^2,5 at 10 mm^2 or more, the ulcer in the condition immediately before perforation is scored as 6, and the ulcer which had caused perforation is scored as 7.
(§1) To a control group was administered 0.5% Tween 80 physiological saline. The inhibition percentage was determined from the following equation: [formula]

[4] = test system: Stress ulcer induced by water-immersion; assay: Anti-ulcer activity: Stress ulcer induced by water-immersion; assay type: in vivo, Wistar rats; conditions: for ED50: Rattus norvegicus, 15 h; for Potency ratio: Cimetidine = 1
Experimental: (iii) Stress ulcer induced by water-immersion
An experiment was carried out according to the method of Takagi et al. [K. Takagi et al., Jap.
Six Wistar rats (male, 230 to 280 g) per group were starved for 24 hours, after which each drug was orally administered. After 30 minutes, the rats were placed in stress cage, immersed in water at 23° C. to the depth of xiphoid, and allowed to stand therein for 15 hours. Thereafter, the stomach of each rat was removed and then fixed with 3% formalin, after which the areas of the ulcers formed were measured under the binocular stereoscopic microscope (10×), and the sum total of the areas was taken as the ulcer index. To a control group was administered 0.5% Tween 80 physiological saline.
The inhibition percentage was determined from the following equation: [formula]

[5] = test system: isolated guinea pig atrium; assay: Effect on isolated guinea pig atrium (histamine-induced heart rate); parameters: species or system Hartley guinea pig; conditions: for Potency ratio: Cimetidine = 1; for IC50: right atrium, 5×10^-6 M histamine, 30° C., read-out: ID50 (the source's name)
Experimental: Hartley guinea pig (male, 300 to 400 g) was killed by blood-letting, immediately after which the heart was isolated, and the right atrium was separated in a Krebs-Henseleit solution and used as a preparation. […] The preparation was trained in a bath fluid, and after the heart rate became constant, 5×10^-6 M of histamine was administered. After the heart rate became constant, each drug was administered cumulatively.
The inhibition percentage was determined from the following equation: [formula] HRmin : heart rate before the administration of histamine HRmax : heart rate after the administration of histamine
HRx : heart rate at the time of the administration of each drug.
The number of experiments were five for each dose.

[6] = test system: Reserpine ulcer; assay: Anti-ulcer activity: Reserpine ulcer; assay type: in vivo, Wistar strain rats; conditions: oral
Experimental: An experiment was carried out according to the method of Adami et al. [E. Adami et al., Arch. int.
Ten Wistar strain rats (male, 180 to 200 g) per group were starved for 30 hours, after which each drug was orally administered, and after 1 hour, reserpine was injected subcutaneously at a dose of 10 mg/kg. After 18 hours, the stomach was removed and fixed with 3% formalin, and thereafter the lengths of the ulcers formed in the stomach were measured with callipers. The measured values were converted to the scores described below, and the sum total of the scores was taken as the ulcer index.
That is to say, 1 to 5 pin point ulcers are scored as 1, 6 or more pin point ulcers are scored as 2, ulcers of 1 mm or less in length are scored as 1, ulcers of 1 to 2 mm in length are scored as 2, ulcers of 2 to 4 mm in length are scored as 4, and ulcers of 4 mm or more in length are scored as 8.
as §1

[7] = test system: gastric acid secretion; assay: Inhibitory effect on gastric acid secretion, perfused stomach preparation of anesthetized rat (histamine stimulated); assay type: in vivo, Wistar strain rats; conditions: intravenous; for Duration: time from complete inhibition until pH of perfusate became 4; for ED100: Rattus norvegicus, cumulative, histamine 30 μg/kg/min, read-out: Dose for complete inhibition
Outline: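 Urethane-anesthetized, 18 h-fasted male Wistar rats (200 to 250 g); stomach perfused at 1 ml/min with saline at pH about 10, with perfusate pH recorded continuously under iv histamine 30 μg/kg/min. Drug given iv cumulatively once secretion steady (pH 3.3±0.2), each dose after a plateau; n=3 per dose.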

[8] = Rattus norvegicus, po, read-out: Inhibition percentage
[9] = Rattus norvegicus, oral, Indomethacin ulcer, read-out: ID50 (the source's name)
[10] = Rattus norvegicus, oral, read-out: Inhibition percentage
[11] = Rattus norvegicus, 10 mg/kg, oral, read-out: Inhibition percentage
[12] = oral, mepirizole-induced duodenal ulcer, read-out: ID50 (the source's name)
[13] = oral, water-immersion stress ulcer, read-out: ID50 (the source's name)

Row | Structure (SMILES) | Inhibition percentage ([4]; 10 mg/kg, oral) | Potency ratio [5] | IC50 [5] | Duration [7] | inhibition in vivo at 1 mg/kg [1] | Potency ratio [2] | ED50 [2, 9] | inhibition in vivo at 0.3 mg/kg [2, 10] | inhibition in vivo at 1 mg/kg [2, 10] | inhibition in vivo at 3 mg/kg [2, 10] | inhibition in vivo at 10 mg/kg [2, 11] | Inhibition percentage ([3]; 1 mg/kg, oral) | Inhibition percentage ([3]; 3 mg/kg, oral) | Inhibition percentage ([3]; 10 mg/kg, oral) | Potency ratio [3] | ED50 [3, 12] | Inhibition percentage ([4]; 1 mg/kg, oral) | Inhibition percentage ([4]; 3 mg/kg, oral) | Potency ratio [4] | ED50 [4, 13] | further results
1 | CN/C(=N/CCSCc1nc[nH]c1C)NC#N [Cimetidine, reference compound] | 22% | 1 | 3350 nM | 16 min |  |  |  |  |  |  |  |  |  |  |  |  |  |  |  |  | inhibition in vivo at 10 mg/kg ([1]; po): 39%; inhibition in vivo at 30 mg/kg ([1]; po): 60%; inhibition in vivo at 90 mg/kg ([1]; po): 97%; ED50 ([2]; Rattus norvegicus, po, read-out: ID50): 27.5 mg/kg; inhibition in vivo at 10 mg/kg [2, 8]: 18%; inhibition in vivo at 30 mg/kg [2, 8]: 50%; inhibition in vivo at 100 mg/kg [2, 8]: 97%; Inhibition percentage ([3]; 100 mg/kg, oral): 43%; rats died ([3]; 100 mg/kg, oral): Two of six rats died; Inhibition percentage ([3]; 300 mg/kg, oral): 59%; rats died ([3]; 300 mg/kg, oral): Four of six rats died; ED50 ([3]; po, read-out: ID50): 162 mg/kg; Inhibition percentage ([4]; 30 mg/kg, oral): 94%; ED50 ([4]; po, read-out: ID50): 15.5 mg/kg; Inhibition percentage ([6]; 100 mg/kg): 9.7%
2 | COc1cccc(C(O)CNC(=C[N+](=O)[O-])NCCSCc2cc(C)c(CN(C)C)s2)c1 (stereo not shown) [compound 9, N-{2-[[5-(dimethylamino)methyl-4-methyl-2-thienyl]methylthio]ethyl}-N'-[2-hydroxy-2-(3-methoxyphenyl)ethyl]-2-nitro-1,1-ethenediamine] | 86% | 13.7 | 245 nM | 190 min | 75% | 39.3 | 0.7 mg/kg | 6% | 70% | 85% | 97% | -8% | 33% | 93% | 37.7 | 4.3 mg/kg | 33% | 66% | 9.1 | 1.7 mg/kg | Inhibition percentage ([6]; 1 mg/kg): 29%; Inhibition percentage ([6]; 3 mg/kg): 69%; ED50 ([6]; Rattus norvegicus, 18 h, reserpine ulcer, read-out: ID50 (the source's name)): 1.8 mg/kg; ED100 [7]: 0.2 mg/kg
3 | O=[N+]([O-])C=C(NCCCOc1cccc(CN2CCCCC2)c1)NCC(O)c1ccc(F)cc1 (stereo not shown) [compound 15, N-[2-(4-fluorophenyl)-2-hydroxyethyl]-2-nitro-N'-[3-(3-piperidinomethylphenoxy)propyl]-1,1-ethenediamine] | 83% | 15.4 | 218 nM | 180 min | 77% | 68.8 | 0.4 mg/kg | 37% | 88% | 92% | 98% | 2% | 29% | 93% | 36.0 | 4.5 mg/kg | 42% | 69% | 11.5 | 1.35 mg/kg | ED100 [7]: 0.06 mg/kg
